pIC50: −log10 of the molar value.
What was measured:
Beta-secretase 2 = target: T1, Beta-secretase 2 (Homo sapiens, UniProt Q9Y5Z0); assay: Inhibition of recombinant human BACE2 extracellular domain expressed in baculovirus using Q-C(HS03)-lle-Asp-Leu-Ala-Val-Leu-Asp-HN-CH2-CH2-Mca as substrate incubated for 1 hr measured every 1 min for 15 mins by fluorescence assay
T1 sequence (Q9Y5Z0 whole entry): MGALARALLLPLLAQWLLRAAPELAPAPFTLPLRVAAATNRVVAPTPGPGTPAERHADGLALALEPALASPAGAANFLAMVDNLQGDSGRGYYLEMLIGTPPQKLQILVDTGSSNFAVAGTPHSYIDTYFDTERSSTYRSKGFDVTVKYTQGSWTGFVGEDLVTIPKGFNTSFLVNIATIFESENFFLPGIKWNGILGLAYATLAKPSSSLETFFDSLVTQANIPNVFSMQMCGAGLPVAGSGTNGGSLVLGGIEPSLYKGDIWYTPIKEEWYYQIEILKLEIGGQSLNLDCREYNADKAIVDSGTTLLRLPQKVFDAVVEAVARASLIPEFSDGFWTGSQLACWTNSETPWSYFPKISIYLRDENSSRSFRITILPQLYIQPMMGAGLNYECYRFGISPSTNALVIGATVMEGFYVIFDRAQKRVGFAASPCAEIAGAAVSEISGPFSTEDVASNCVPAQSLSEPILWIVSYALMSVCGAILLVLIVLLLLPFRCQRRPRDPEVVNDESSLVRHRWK

Beta-secretase (BACE) = Beta-secretase (BACE) (Homo sapiens, UniProt Q9Y5Z0+P56817); assay: Inhibition of BACE1/BACE2 (unknown origin) transfected in CHO cells assessed as release of amyloid beta (1 to 40) after 24 hrs by immunoassay; assay type: cell-based
Beta-secretase 1 = Beta-secretase 1 (Homo sapiens, UniProt P56817); assay: Inhibition of recombinant human BACE1 extracellular domain expressed in baculovirus using Q-C(HS03)-lle-Asp-Leu-Ala-Val-Leu-Asp-HN-CH2-CH2-Mca as substrate incubated for 1 hr measured every 1 min for 15 mins by fluorescence assay
Rattus norvegicus [1] = assay: Antialzheimer activity in Sprague-Dawley rat assessed as lowering of amyloid beta level in CSF at 10 mg/kg, po after 4 hrs relative to vehicle-treated control; assay type: functional
Rattus norvegicus [2] = assay: Antialzheimer activity in Sprague-Dawley rat assessed as lowering of amyloid beta level in forebrain at 10 mg/kg, po after 4 hrs relative to vehicle-treated control; assay type: functional

Beta-secretase 1, sequence (P56817 whole entry, the tested form may be a part): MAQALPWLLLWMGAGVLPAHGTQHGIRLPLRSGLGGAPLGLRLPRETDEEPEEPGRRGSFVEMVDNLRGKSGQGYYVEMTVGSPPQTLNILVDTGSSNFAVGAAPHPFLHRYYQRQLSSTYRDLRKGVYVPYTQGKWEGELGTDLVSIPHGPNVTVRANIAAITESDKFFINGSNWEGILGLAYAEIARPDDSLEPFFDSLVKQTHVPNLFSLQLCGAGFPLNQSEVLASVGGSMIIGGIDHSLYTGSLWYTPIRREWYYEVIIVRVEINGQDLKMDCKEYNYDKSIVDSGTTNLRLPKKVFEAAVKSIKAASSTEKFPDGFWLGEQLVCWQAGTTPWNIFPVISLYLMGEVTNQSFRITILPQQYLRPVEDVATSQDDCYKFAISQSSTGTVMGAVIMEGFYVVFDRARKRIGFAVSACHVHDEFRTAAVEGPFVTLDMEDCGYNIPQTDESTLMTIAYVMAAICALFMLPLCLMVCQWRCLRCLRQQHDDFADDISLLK

Compound | pIC50 (Beta-secretase 2) | IC50 (Beta-secretase (BACE)) | pIC50 (Beta-secretase 1) | Activity (Rattus norvegicus [1]) | Activity (Rattus norvegicus [2])
C[C@]1(c2nc(NC(=O)c3ccc(C#N)cn3)ccc2F)N=C(N)OCC1(F)F | 7.18 | 0.007 µM | 7.92 | – | –
C[C@]1(c2nc(NC(=O)c3ncc(C#N)cc3Cl)ccc2F)N=C(N)OCC1(F)F | – | 0.008 µM | – | -70.7% | -67.1%
CC1(C)OC(N)=N[C@](C)(c2nc(NC(=O)c3ncc(C#N)cc3Cl)ccc2F)C1(F)F | – | – | – | -35.3% | -20%
C[C@]1(c2nc(NC(=O)c3ncc(C(F)(F)F)cc3Cl)ccc2F)N=C(N)OCC1(F)F | – | – | – | -67.9% | -63.6%
C[C@]1(c2nc(NC(=O)c3ncc(Cl)cc3Cl)ccc2F)N=C(N)OCC1(F)F | – | 0.012 µM | – | – | –

Second part, led by results:

pIC50 (Beta-secretase 2) | IC50 (Beta-secretase (BACE)) | pIC50 (Beta-secretase 1) | Compound | Activity (Rattus norvegicus [1]) | Activity (Rattus norvegicus [2])
– | 0.44 µM | – | C[C@]1(c2nc(NC(=O)c3ncc(OCC(F)F)nc3N)ccc2F)N=C(N)OCC1(F)F | – | –
– | 0.013 µM | – | C[C@]1(c2nc(NC(=O)c3nn(C(F)F)cc3Cl)ccc2F)N=C(N)OCC1(F)F | -55.2% | -46.6%

Source: ChEMBL document CHEMBL2385046, “Dihydrooxazines As Inhibitors of BACE-1 or BACE-2” (ACS Med Chem Lett, 2013)
